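Cells were grown in 96-well plates and exposed to each compound for 48 hours at five concentrations; endpoints were interpolated linearly between bracketing concentrations, or set to the highest concentration if not reached. TGI: total growth inhibition.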 Where a SMILES comes first, the peptide text is derived from it. [ ]: non-standard residue; d: D form. The star is where a group is joined. ξ: configuration not given here. ξF = NC(Cc1ccccc1)C(=O)O; Cbz = O=C(OCc1ccccc1)*; Aib = CC(C)(N)C(=O)O; NHNH2 = NN*
What was measured:
Test in all cases: inhibition of tumour cell growth, NCI panel, 48 h
COLO 205 colon = system: COLO 205 colon
U251 CNS = system: U251 CNS
UACC-62 melanoma = system: UACC-62 melanoma
HCT-116 colon = system: HCT-116 colon
PC-3 prostate = system: PC-3 prostate
SK-MEL-2 melanoma = system: SK-MEL-2 melanoma
MDA-MB-435 = system: MDA-MB-435
NCI-H23 lung = system: NCI-H23 lung
CAKI-1 renal = system: CAKI-1 renal
TK-10 renal = system: TK-10 renal
CCRF-CEM leukemia = system: CCRF-CEM leukemia
A498 renal = system: A498 renal
T-47D breast = system: T-47D breast
OVCAR-4 ovarian = system: OVCAR-4 ovarian
RPMI-8226 leukemia = system: RPMI-8226 leukemia
M14 melanoma = system: M14 melanoma
HOP-62 NSCLC = system: HOP-62 NSCLC

Structure (SMILES) | TGI (COLO 205 colon) | TGI (U251 CNS) | TGI (UACC-62 melanoma) | TGI (HCT-116 colon) | TGI (PC-3 prostate) | TGI (SK-MEL-2 melanoma) | TGI (MDA-MB-435) | TGI (NCI-H23 lung) | TGI (CAKI-1 renal) | TGI (TK-10 renal) | TGI (CCRF-CEM leukemia) | TGI (A498 renal) | TGI (T-47D breast) | TGI (OVCAR-4 ovarian) | TGI (RPMI-8226 leukemia) | TGI (M14 melanoma) | TGI (HOP-62 NSCLC)
C[C@@H](c1ccccc1)n1c(N)c(-c2ccccn2)c2ccc([N+](=O)[O-])cc2c1=O | > 100 µM | > 100 µM | > 100 µM | > 100 µM | > 100 µM | > 100 µM | > 100 µM | > 100 µM | > 100 µM | > 100 µM | > 100 µM | 65.5 µM | > 100 µM | > 100 µM | – | – | –
CN(C)c1ccc(C=Nc2ccc(-c3nc4ccccc4[nH]3)cc2)cc1 | > 100 µM | > 100 µM | – | > 100 µM | > 100 µM | > 100 µM | > 100 µM | > 100 µM | > 100 µM | > 100 µM | > 100 µM | > 100 µM | > 100 µM | > 100 µM | > 100 µM | > 100 µM | > 100 µM
O=c1[nH]c2nnc(COc3ccc(Cl)cc3Cl)n2nc1Cc1ccccc1 | > 100 µM | 53.1 µM | – | > 100 µM | > 100 µM | > 100 µM | > 100 µM | > 100 µM | > 100 µM | 96.5 µM | > 100 µM | 82 µM | > 100 µM | > 100 µM | > 100 µM | > 100 µM | > 100 µM
COC(=O)C1CCC(=O)N1CN(C(C)=O)c1ccccc1Cl (centres undefined) | > 100 µM | > 100 µM | > 100 µM | > 100 µM | > 100 µM | > 100 µM | > 100 µM | > 100 µM | > 100 µM | > 100 µM | – | > 100 µM | > 100 µM | > 100 µM | > 100 µM | > 100 µM | > 100 µM
CC1=CC(=O)CC(C)(C)C1/C=C/C(C)=C/C=C/C(C)=C/C=C/C=C(C)/C=C/C=C(C)/C=C/C1C(C)=CC(=O)CC1(C)C (centres undefined) | – | > 100 µM | – | 55.1 µM | > 100 µM | > 100 µM | 71.4 µM | > 100 µM | > 100 µM | > 100 µM | > 100 µM | > 100 µM | > 100 µM | > 100 µM | > 100 µM | > 100 µM | > 100 µM
COc1ccccc1NC(=S)NN=C(C)c1cccc(C(C)=NNC(=S)Nc2ccccc2OC)n1 | > 100 µM | > 100 µM | > 100 µM | 11.1 µM | > 100 µM | > 100 µM | > 100 µM | > 100 µM | > 100 µM | – | > 100 µM | 93 µM | > 100 µM | 74.3 µM | > 100 µM | 25.8 µM | > 100 µM
CC(O)(Cc1ccccc1C#N)Cc1ccccc1C#N | > 100 µM | > 100 µM | > 100 µM | > 100 µM | > 100 µM | > 100 µM | > 100 µM | – | > 100 µM | > 100 µM | – | > 100 µM | > 100 µM | > 100 µM | – | > 100 µM | > 100 µM
O=c1ccn(CC2(CO)CCC2)c(=O)[nH]1 | > 100 µM | > 100 µM | > 100 µM | > 100 µM | > 100 µM | > 100 µM | > 100 µM | > 100 µM | > 100 µM | > 100 µM | > 100 µM | > 100 µM | > 100 µM | > 100 µM | > 100 µM | – | > 100 µM
CC1(C)O[C@@H]([C@H](O)CO)[C@H](O)[C@@H](C2SCCCS2)O1 | > 100 µM | > 100 µM | > 100 µM | > 100 µM | > 100 µM | > 100 µM | > 100 µM | > 100 µM | > 100 µM | > 100 µM | – | > 100 µM | > 100 µM | > 100 µM | > 100 µM | > 100 µM | > 100 µM
CC(C)(NC(=O)OCc1ccccc1)C(=O)NC(Cc1ccccc1)C(=O)NN (centres undefined) (Cbz-[Aib]-[ξF]-NHNH2) | > 100 µM | > 100 µM | > 100 µM | – | > 100 µM | > 100 µM | > 100 µM | > 100 µM | > 100 µM | > 100 µM | > 100 µM | > 100 µM | > 100 µM | > 100 µM | > 100 µM | > 100 µM | > 100 µM
CCOC(=O)c1c[nH]c2c(Sc3ccccc3)nccc2c1=O | > 100 µM | > 100 µM | > 100 µM | > 100 µM | > 100 µM | > 100 µM | > 100 µM | > 100 µM | > 100 µM | > 100 µM | > 100 µM | > 100 µM | > 100 µM | > 100 µM | – | > 100 µM | > 100 µM
CC(=O)Nc1c(S(=O)(=O)c2ccccc2)c(C)c(C)n1CCN(C)C | > 100 µM | > 100 µM | > 100 µM | > 100 µM | > 100 µM | > 100 µM | > 100 µM | > 100 µM | > 100 µM | > 100 µM | > 100 µM | > 100 µM | > 100 µM | > 100 µM | > 100 µM | > 100 µM | –
COc1c(CC=C(C)C)c(O)c(C(CC(C)C)c2c(O)c3c(c(C(C)=O)c2O)OC(C(C)(C)O)C3)c(O)c1C(C)=O (centres undefined) | 8.38 µM | – | > 12.5 µM | > 12.5 µM | 10 µM | > 12.5 µM | > 12.5 µM | 8.9 µM | > 12.5 µM | – | 9.74 µM | 12.3 µM | 9.21 µM | > 12.5 µM | 3.19 µM | > 12.5 µM | > 12.5 µM
O=c1[nH]c(Cc2ccccc2)nc2c1sc1nc3ccccc3n12 | > 100 µM | > 100 µM | > 100 µM | > 100 µM | > 100 µM | > 100 µM | > 100 µM | > 100 µM | > 100 µM | > 100 µM | > 100 µM | > 100 µM | > 100 µM | > 100 µM | > 100 µM | > 100 µM | –
O=c1c2cc(I)ccc2nc(SCc2nncs2)n1Cc1ccccc1 | > 100 µM | > 100 µM | > 100 µM | > 100 µM | > 100 µM | 85.5 µM | > 100 µM | > 100 µM | – | > 100 µM | 70.8 µM | 65.1 µM | > 100 µM | > 100 µM | > 100 µM | > 100 µM | > 100 µM

— PubChem BioAssay (NCI)
